Measured values taken from patent US8815852B2, “Carbamoyloxy arylalkan arylpiperazine analgesics” (SK Biopharmaceuticals Co., Ltd., priority 2007, dated 2014).
Read-outs that look alike come from different tables or passages of the source.

Columns and labels:
male ICR mouse [1] = test: Formalin test - late phase in mouse; format: in vivo; settings: po, unit inferred
Method: 3. Formalin Test—Late Phase in Mouse
A formalin test is another model for measuring an analgesic effect of drugs. […] These pain behaviors have a biphasic pattern, and therefore they are divided into an early-phase behavior within […] after the formalin administration; and a late-phase behavior up to 10 to 60 minutes. The medicinal effect observed in the formalin test-late phase means an analgesic effect of the test material in the inflammatory pain model, and also becomes a measure that may predict the medicinal effects in the neuropathic pain model (Vissers K et. al, 2003). A test material was orally administered to a male ICR mouse weighing 30 to 35 g. After 1 hour of the oral administration, 20 μl of a 2.5% formalin solution was subcutaneously injected into the planta surface of a mouse's hindlimb to induce pain. […] The analgesic effect of the test material is represented by the ‘suppression ratio of pain response’ {[(Pain response time of Vehicle-administered group−Pain response time of Test material-administered group)/(Pain response time of Vehicle-administered group)]×100%}, or ‘50% of Effective amount (ED50; an amount of a test material that is required to suppress 50% of pain behaviors) of Test material’. The ED50 (median effective dose) was determined by calculating the suppression ratio of pain response in at least three doses of test materials and subjecting to the linear regression.

5-HT2A receptor = 5-HT2A receptor (Rattus norvegicus (Rat), UniProt P14842); test: Binding to 5-HT2A receptor ([3H]-Ketanserin, rat cortical membranes); set-up: species or system Sprague-Dawley (SD) rats; settings: for IC50: 0.5 nM [3H]-Ketanserin, read-out: 5-HT2A: IC50 (Concentration required to be 50% suppressed); for inhibition at 1 µM: 1 h, read-out: 5-HT2A: Suppression
Method: Binding to 5-HT2A Receptor
6-week-old Sprague-Dawley (SD) rats were anesthetized in an ether container for 5 minutes, brains were separated from rats, and cortical regions were then separated from the brains of the rats. The cortical regions of the rats were put into a Tris-HCl buffer solution (50 mM, pH 7.7) and homogenized, and the homogenate was centrifuged twice at 4° C. at a rotary speed of 50,000 g to obtain a precipitate (membrane protein). The precipitate was put into a buffer solution, and homogenized, which was used later as a protein source. 0.5 nM [3H]-Ketanserin was used as a radioactive isotope, and 10 uM serotonin was used to remove non-specific bindings. 25 ul of the compound, 100 ul of an aqueous radioactive isotope solution, and 100 ul of the protein source were put together, and kept at 25° C. for 1 hour. The resulting mixture was filtered with a membrane filter in a 96-well harvester when the 96-well plate reaction was completed. The competitivity of the compound to [3H]-Ketanserin was determined by taking the membrane filter and measuring the radioactivity in a scintillation counter, and an IC50 value was determined by measuring the increasing concentration of the compound. The specific reaction of the compound accounted for 90% or more. The general experiments were carried out according to the method by Leysen et al. (1982, Eur. J. Pharmacol).

5-HT1A receptor = 5-HT1A receptor (Rattus norvegicus (Rat), UniProt P19327); test: Binding to 5-HT1A receptor ([3H]-8-OH-DPAT, rat cortical membranes); set-up: species or system Sprague-Dawley (SD) rats; settings: for IC50: 2 nM [3H]-8-OH-DPAT, read-out: 5-HT1A: IC50 (Concentration required to be 50% suppressed); for inhibition at 1 µM: 1 h, read-out: 5-HT1A: Suppression
Method: Binding to 5-HT1A Receptor
6-week-old Sprague-Dawley (SD) rats were anesthetized in an ether container for 5 minutes, brains were separated from rats, and cortical regions were then separated from the brains of the rats. The cortical regions of the rats were put into a Tris-HCl buffer solution (50 mM, pH 7.4) and homogenized, and the homogenate was centrifuged twice at 4? at a rotary speed of 50,000 g to obtain a precipitate (membrane protein). The precipitate was put into a buffer solution, and homogenized, which was used later as a protein source. 2 nM [3H]-8-OH-DPAT was used as a radioactive isotope, and 10 uM serotonin was used to remove non-specific bindings. 25 ul of the compound, 100 ul of an aqueous radioactive isotope solution, and 100 ul of the protein source were put together, and kept at 25° C. for 1 hour. The resulting mixture was filtered with a membrane filter in a 96-well harvester when the 96-well plate reaction was completed. The competitivity of the compound to [3H]-8-OH-DPAT was determined by taking the membrane filter and measuring the radioactivity of the membrane filter in a scintillation counter, and an IC50 value was determined by measuring the increasing concentration of the compound. The specific reaction of the compound accounted for 90% or more. The general experiments were carried out according to the method by Middlemiss et al. (1984, Eur. J. Pharmacol.).

male ICR mouse [2] = test: Acetic acid-induced writhing test in mouse; format: in vivo; settings: Mus musculus; for ED50: unit not given (method doses in mg/kg), read-out: AA Writhing: ED50; for inhibition in vivo at 10 mg/kg: at 10 po (method: 10 mg/kg oral, 1 hour before acetic acid), read-out: AA Writhing: Suppression ratio of Pain response
Outline: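 Male ICR mice (30 to 35 g) dosed orally at 10 mg/kg, then given 0.8% acetic acid i.p. 1 h later. Writhes counted for 10 min and expressed as % suppression against vehicle. ED50 derived by linear regression over at least three doses.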

Sequence of 5-HT2A receptor (P14842 whole entry): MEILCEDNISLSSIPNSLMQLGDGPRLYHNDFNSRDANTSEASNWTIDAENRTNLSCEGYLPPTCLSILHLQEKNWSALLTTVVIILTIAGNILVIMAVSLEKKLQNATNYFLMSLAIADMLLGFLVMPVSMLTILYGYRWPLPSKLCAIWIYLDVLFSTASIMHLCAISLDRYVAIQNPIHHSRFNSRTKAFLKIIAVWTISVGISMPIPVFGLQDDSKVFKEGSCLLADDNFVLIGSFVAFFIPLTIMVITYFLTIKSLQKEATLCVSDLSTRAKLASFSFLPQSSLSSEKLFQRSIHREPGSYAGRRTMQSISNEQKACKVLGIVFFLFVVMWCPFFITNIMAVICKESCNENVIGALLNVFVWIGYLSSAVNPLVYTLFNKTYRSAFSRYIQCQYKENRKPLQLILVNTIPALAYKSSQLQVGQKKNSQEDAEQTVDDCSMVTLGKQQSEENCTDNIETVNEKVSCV
Sequence of 5-HT1A receptor (P19327 whole entry): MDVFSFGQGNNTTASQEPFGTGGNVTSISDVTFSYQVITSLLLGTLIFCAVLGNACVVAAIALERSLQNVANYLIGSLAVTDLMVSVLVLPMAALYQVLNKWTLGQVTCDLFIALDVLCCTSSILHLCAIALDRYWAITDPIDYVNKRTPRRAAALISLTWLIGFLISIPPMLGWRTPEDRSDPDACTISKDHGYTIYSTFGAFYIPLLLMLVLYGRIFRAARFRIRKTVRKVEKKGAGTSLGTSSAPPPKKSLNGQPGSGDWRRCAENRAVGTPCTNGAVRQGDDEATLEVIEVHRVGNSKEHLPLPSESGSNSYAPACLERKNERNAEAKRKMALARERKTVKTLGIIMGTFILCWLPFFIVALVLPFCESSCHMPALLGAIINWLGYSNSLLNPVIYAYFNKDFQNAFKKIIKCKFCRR

| Structure (SMILES) | ED50 (male ICR mouse [1]) [mg/kg] | IC50 (5-HT2A receptor) [µM] | IC50 (5-HT1A receptor) [µM] | ED50 (male ICR mouse [2]; po) [mg/kg] | inhibition at 1 µM (5-HT2A receptor) [%] | inhibition at 1 µM (5-HT1A receptor) [%] | inhibition in vivo at 10 mg/kg (male ICR mouse [2]; po, 1 h) [%] | ED50 (male ICR mouse [2]; ip) [mg/kg] | inhibition in vivo at 10 mg/kg (male ICR mouse [2]) [%] |
| --- | --- | --- | --- | --- | --- | --- | --- | --- | --- |
| NC(=O)OC(CCN1CCN(c2ccccc2)CC1)c1ccccc1 (centres unmarked) [Example 1, Carbamic acid 1-phenyl-3-(4-phenyl-piperazin-1-yl)-propyl ester] | 8.43 | 0.139 | 0.434 | 6.31 |  |  |  |  |  |
| NC(=O)OC(CCN1CCN(c2ccccc2)CC1)c1ccc(Cl)cc1 (centres unmarked) [Example 2, Carbamic acid 1-(4-chloro-phenyl)-3-(4-phenyl-piperazin-1-yl)-propyl ester] | 2.2 |  |  | 2.14 | 84.6 | 64.6 |  |  |  |
| NC(=O)OC(CCN1CCN(c2ccccc2)CC1)c1cccc([N+](=O)[O-])c1 (centres unmarked) [Example 4, Carbamic acid 1-(3-nitro-phenyl)-3-(4-phenyl-piperazin-1-yl)-propyl ester] |  |  |  |  | 86.4 | 74.6 | 48 |  |  |
| CC(C)(C)c1ccc(C(CCN2CCN(c3ccccc3)CC2)OC(N)=O)cc1 (centres unmarked) [Example 5, Carbamic acid 1-(4-tert-butyl-phenyl)-3-(4-phenyl-piperazin-1-yl)-propyl ester] |  |  |  |  | 98.8 | 44.4 | 62 |  |  |
| NC(=O)OC(CCN1CCN(c2ccccc2)CC1)c1ccc(F)cc1 (centres unmarked) [Example 6, Carbamic acid 1-(4-fluoro-phenyl)-3-(4-phenyl-piperazin-1-yl)-propyl ester] | 4.45 |  |  | 2.79 | 84.7 | 65.5 |  |  |  |
| NC(=O)OC(CCN1CCN(c2ccccc2)CC1)c1cccc(Cl)c1 (centres unmarked) [Example 7, Carbamic acid 1-(3-chloro-phenyl)-3-(4-phenyl-piperazin-1-yl)-propyl ester] |  |  |  |  | 93.7 | 76.4 | 59 |  |  |
| COc1ccc(C(CCN2CCN(c3ccccc3)CC2)OC(N)=O)cc1 (centres unmarked) [Example 8, Carbamic acid 1-(4-methoxy-phenyl)-3-(4-phenyl-piperazin-1-yl)-propyl ester] |  |  |  |  | 82 | 67.7 | 43 |  |  |
| NC(=O)OC(CCN1CCN(c2ccccc2)CC1)c1ccc([N+](=O)[O-])cc1 (centres unmarked) [Example 9, Carbamic acid 1-(4-nitro-phenyl)-3-(4-phenyl-piperazin-1-yl)-propyl ester] | 2.39 |  |  |  | 88 | 81.4 | 91 |  |  |
| NC(=O)OC(CCN1CCN(c2ccc([N+](=O)[O-])cc2)CC1)c1ccccc1 (centres unmarked) [Example 16, Carbamic acid 1-phenyl-3-[4-(4-nitro-phenyl)-piperazin-1-yl]-propyl ester] | 11.6 | 2.05 | 6.57 |  |  |  |  | 2.92 |  |
| COc1ccc(N2CCN(CCC(OC(N)=O)c3ccccc3)CC2)cc1 (centres unmarked) [Example 20, Carbamic acid 3-[4-(4-methoxy-phenyl)-piperazin-1-yl]-1-phenyl-propyl ester] | 5.77 | 5.85 | 19.8 | 3.12 |  |  |  |  |  |
| NC(=O)OC(CCN1CCN(c2ccc(F)cc2)CC1)c1ccccc1 (centres unmarked) [Example 21, Carbamic acid 3-[4-(4-fluoro-phenyl)-piperazin-1-yl]-1-phenyl-propyl ester] |  | 0.0645 | 1.05 |  |  |  |  |  | 88 |
| COc1ccccc1N1CCN(CCC(OC(N)=O)c2ccccc2)CC1 (centres unmarked) [Example 27, Carbamic acid 3-[4-(2-methoxy-phenyl)-piperazin-1-yl]-1-phenyl-propyl ester] |  | 0.164 | 0.0976 | 7.8 |  |  |  |  |  |
| NC(=O)OC(CCN1CCN(c2cccc(Cl)c2)CC1)c1ccccc1 (centres unmarked) [Example 36, Carbamic acid 3-[4-(3-chloro-phenyl)-piperazin-1-yl]-1-phenyl-propyl ester] |  | 0.0615 | 0.0938 | 17.5 |  |  |  |  |  |
| Cc1ccccc1N1CCN(CCC(OC(N)=O)c2ccccc2)CC1 (centres unmarked) [Example 37, Carbamic acid 1-phenyl-3-(4-o-tolylpiperazin-1-yl)-propyl ester] | 42.4 |  |  |  |  |  |  | 1.96 |  |
| NC(=O)OC(CCN1CCN(c2ccccc2F)CC1)c1ccccc1 (centres unmarked) [Example 41, Carbamic acid 3-[4-(2-fluoro-phenyl)-piperazin-1-yl]-1-phenyl-propyl ester] | 33.2 | 0.11 | 0.16 |  |  |  |  | 0.34 |  |
| COc1ccccc1N1CCN(CCC(OC(N)=O)c2ccc(F)cc2)CC1 (centres unmarked) [Example 78, Carbamic acid 1-(4-fluoro-phenyl)-3-[4-(2-methoxy-phenyl)-piperazin-1-yl]-propyl ester] |  |  |  |  | 71.5 | 79 | 34 |  |  |
| NC(=O)OC(CCN1CCN(c2ccc([N+](=O)[O-])cc2)CC1)c1ccc(F)cc1 (centres unmarked) [Example 79, Carbamic acid 1-(4-fluoro-phenyl)-3-[4-(4-nitro-phenyl)-piperazin-1-yl]-propyl ester] |  |  |  |  | 29.6 | 29.6 | 70 |  |  |
| Cc1ccccc1N1CCN(CCC(OC(N)=O)c2ccc(F)cc2)CC1 (centres unmarked) [Example 80, Carbamic acid 1-(4-fluoro-phenyl)-3-(4-o-tolyl-piperazin-1-yl)-propyl ester] |  |  |  |  | 76.8 | 75.3 | 29 |  |  |
| NC(=O)OC(CCN1CCN(c2ccc(F)cc2)CC1)c1ccc(F)cc1 (centres unmarked) [Example 81, Carbamic acid 1-(4-fluoro-phenyl)-3-[4-(4-fluoro-phenyl)-piperazin-1-yl]-propyl ester] |  |  |  |  | 93.9 | 60.9 | 52 |  |  |
| NC(=O)OC(CCCN1CCN(c2ncccc2Cl)CC1)c1ccccc1 (centres unmarked) [Example 97, Carbamic acid 4-[4-(3-chloro-pyridin-2-yl)-piperazin-1-yl]-1-phenyl-butyl ester] |  | 0.519 | 0.181 |  |  |  |  |  |  |
| COc1ccc(N2CCN(CC[C@@H](OC(N)=O)c3ccccc3)CC2)cc1 [Example 102, (R)-carbamic acid 3-[4-(4-methoxy-phenyl)-piperazin-1-yl]-1-phenyl-propyl ester] | 4.77 | 2.78 | 4.31 | 3.15 |  |  |  |  |  |
| COc1ccc(N2CCN(CC[C@H](OC(N)=O)c3ccccc3)CC2)cc1 [Example 106, (S)-carbamic acid 3-[4-(4-methoxy-phenyl)-piperazin-1-yl]-1-phenyl-propyl ester] | 12.5 |  |  |  |  |  |  | 1.43 |  |
